ChEMBL document CHEMBL1121833, “Structure--sweetness relationship of L-aspartyl dipeptide analogues. A receptor site topology” (J Med Chem, 1981)

Assay: Sweet potency as logarithm of sweet potency (log SP) relative to sucrose
Type: functional

CC1CCC1C(=O)OC[C@H](C)NC(=O)[C@H](N)CC(=O)O (stereo not given in full)
Log SP: 2.13

CCC(=O)OC[C@H](CC)NC(=O)[C@H](N)CC(=O)O
Log SP: 1.48

C[C@H](O)[C@@H](NC(=O)[C@@H](N)CC(=O)O)C(=O)OC1CCCCC1
Log SP: 1.31

CC[C@H](NC(=O)[C@H](N)CC(=O)O)C(=O)OC(C)C
Log SP: 2.15

COC(=O)C[C@H](C)NC(=O)[C@H](N)CC(=O)O
Log SP: 0.43

CCCCC[C@@H](NC(=O)[C@H](N)CC(=O)O)C(=O)OC
Log SP: 1.9

COC(=O)[C@H](NC(=O)[C@@H](N)CC(=O)O)[C@@H](C)O
Log SP: 0.71

CCOC(=O)[C@H](NC(=O)[C@H](N)CC(=O)O)C(=O)OC1CCCCC1
Log SP: 2.68

CCOC(=O)[C@H](NC(=O)[C@H](N)CC(=O)O)C(=O)OC1CCCC1
Log SP: 2.44

COC(=O)[C@H](NC(=O)[C@H](N)CC(=O)O)C(=O)OC1CCCC1
Log SP: 2.92

CC[C@H](NC(=O)[C@H](N)CC(=O)O)C(=O)OC
Log SP: 1.04

N[C@H](CC(=O)O)C(=O)NCCOC(=O)C1CC1
Log SP: 1.03

CCCC(O)[C@H](NC(=O)[C@H](N)CC(=O)O)C(=O)OC (stereo in doubt; 57)
Log SP: 0.75

C[C@@H](Cc1ccco1)NC(=O)[C@H](N)CC(=O)O
Log SP: 1.16

COC(=O)[C@@H](COC(C)(C)C)NC(=O)[C@H](N)CC(=O)O
Log SP: 2.15

CCOCC[C@H](C)NC(=O)[C@H](N)CC(=O)O
Log SP: 1.14

CC(C)CC(=O)OC[C@H](C)NC(=O)[C@H](N)CC(=O)O
Log SP: 2.08

COC(=O)[C@@H](CCC(C)C)NC(=O)[C@H](N)CC(=O)O
Log SP: 2.11

CCC(C)[C@@H](NC(=O)[C@@H](N)CC(=O)O)C(=O)OC(C)C (stereo not given in full)
Log SP: 0.53

CCOC(=O)C(NC(=O)[C@@H](N)CC(=O)O)C(=O)OC1CCCCC1C (stereo not given in full)
Log SP: 3.09

COC(=O)[C@@H](CSC(C)(C)C)NC(=O)[C@H](N)CC(=O)O
Log SP: 2.95

COC(=O)C(NC(=O)[C@@H](N)CC(=O)O)C(=O)OC1C(C)CCCC1C (stereo not given in full)
Log SP: 4.02

CCCC(O)[C@H](NC(=O)[C@H](N)CC(=O)O)C(=O)OC (stereo in doubt; 56)
Log SP: 1.16

C[C@@H](COC(=O)C(C)(C)C)NC(=O)[C@H](N)CC(=O)O
Log SP: 2.28

N[C@H](CC(=O)O)C(=O)N[C@@H](CO)COC(=O)C1CC1
Log SP: 1.96

COC(=O)C(NC(=O)[C@@H](N)CC(=O)O)C(=O)OCC1C2(C)CCC(C2)C1(C)C (stereo not given in full)
Log SP: 4.79

CC(C)[C@@H](COC(=O)C1CC1)NC(=O)[C@H](N)CC(=O)O
Log SP: 1.22

CCOC(=O)C(NC(=O)[C@@H](N)CC(=O)O)C(=O)OCC1C2(C)CCC(C2)C1(C)C (stereo not given in full)
Log SP: 4.05

CCC(C)C(=O)OC[C@H](CO)NC(=O)[C@H](N)CC(=O)O (stereo not given in full)
Log SP: 1.21

CCCOC(=O)[C@H](CCC)NC(=O)[C@H](N)CC(=O)O
Log SP: 1.56

CCC(=O)OCCNC(=O)[C@H](N)CC(=O)O
Log SP: 0.61

CCC(CC)C(=O)OC[C@H](C)NC(=O)[C@H](N)CC(=O)O
Log SP: 1.53

COC(=O)[C@@H](CC1CCCCC1)NC(=O)[C@H](N)CC(=O)O
Log SP: 2.3

N[C@H](CC(=O)O)C(=O)NCCC(=O)OC1CCCCC1
Log SP: 1.22

CC(C)C(=O)OC[C@H](CO)NC(=O)[C@H](N)CC(=O)O
Log SP: 1.48

N[C@H](CC(=O)O)C(=O)N[C@@H](CO)COC(=O)C1CCC1
Log SP: 1.71

COC(=O)[C@H](NC(=O)[C@@H](N)CC(=O)O)[C@H](C)O
Log SP: 1.26

CCOC(=O)[C@H](NC(=O)[C@@H](N)CC(=O)O)[C@@H](C)O
Log SP: 0.66

CCOC(=O)[C@H](NC(=O)[C@@H](N)CC(=O)O)[C@H](C)O
Log SP: 1.93

CC(C)CC(=O)OCCNC(=O)[C@H](N)CC(=O)O
Log SP: 1.36

CCCCC[C@H](C)NC(=O)[C@H](N)CC(=O)O (stereo in doubt; 10)
Log SP: 1.43

CCCCC(=O)OC[C@H](C)NC(=O)[C@H](N)CC(=O)O
Log SP: 0.6

C[C@@H](CC(=O)OC1CCCCC1)NC(=O)[C@H](N)CC(=O)O
Log SP: 0.64

COC(=O)C(NC(=O)[C@@H](N)CC(=O)O)C(=O)OC1CCCCC1C (stereo in doubt; 203)
Log SP: 4.11

CCCCOC(=O)[C@H](CO)NC(=O)[C@H](N)CC(=O)O
Log SP: 1.75

CCOC(=O)[C@H](CO)NC(=O)[C@H](N)CC(=O)O
Log SP: 1.92

COC(=O)CNC(=O)[C@H](N)CC(=O)O
Log SP: 0.68

COC(=O)C(NC(=O)[C@@H](N)CC(=O)O)C(=O)OC1CC(C)CC(C)(C)C1 (stereo not given in full)
Log SP: 2.76

N[C@H](CC(=O)O)C(=O)NCCC(=O)OC1CCCC1
Log SP: 1.16

CCOC(=O)C[C@H](C)NC(=O)[C@H](N)CC(=O)O (stereo in doubt; 133)
Log SP: 0.88

COC[C@@H](COC(C)=O)NC(=O)[C@H](N)CC(=O)O
Log SP: 0.48

CC(C)[C@@H](COC(=O)C1CCC1)NC(=O)[C@H](N)CC(=O)O
Log SP: 1.06

CCCC(=O)OCCNC(=O)[C@H](N)CC(=O)O
Log SP: 0.56

C[C@@H](CC1CCCCC1)NC(=O)[C@H](N)CC(=O)O
Log SP: 1.57

COC(=O)C(C)C[C@H](NC(=O)[C@@H](N)CC(=O)O)C(=O)OC (stereo not given in full)
Log SP: 1.15

C[C@@H](COC(=O)C1CCCC1)NC(=O)[C@H](N)CC(=O)O
Log SP: 1.7

CC(C)OC(=O)C(C)CNC(=O)[C@H](N)CC(=O)O (stereo not given in full)
Log SP: 0.18

CCOC(=O)C[C@H](C)NC(=O)[C@H](N)CC(=O)O (stereo in doubt; 128)
Log SP: 1.16

COC(=O)CC[C@@H](NC(=O)[C@H](N)CC(=O)O)C(=O)OC
Log SP: 2

CCC(=O)OC[C@@H](NC(=O)[C@H](N)CC(=O)O)C(=O)OC
Log SP: 1.53

COC(=O)[C@@H](COC(C)=O)NC(=O)[C@H](N)CC(=O)O
Log SP: 0.91

CCC(CC)OC(=O)[C@@H](NC(=O)[C@H](N)CC(=O)O)C(=O)OC (stereo in doubt; 199)
Log SP: 3.06

CCC(CC)OC(=O)[C@@H](NC(=O)[C@H](N)CC(=O)O)C(=O)OC (stereo in doubt; 198)
Log SP: 2.79

C[C@@H](Cc1ccc(F)cc1)NC(=O)[C@H](N)CC(=O)O
Log SP: 1.5

COC(=O)CCCNC(=O)[C@H](N)CC(=O)O
Log SP: 0.13

CCC(C)C(=O)OC[C@H](C)NC(=O)[C@H](N)CC(=O)O (stereo not given in full)
Log SP: 2.08

COC(=O)C[C@@H](NC(=O)[C@H](N)CC(=O)O)C(=O)OC
Log SP: 0.6

COC(=O)[C@@H](Cc1ccc(O)cc1)NC(=O)[C@H](N)CC(=O)O
Log SP: 2.15

CCCCOC(=O)[C@H](NC(=O)[C@@H](N)CC(=O)O)[C@@H](C)O
Log SP: 1.41

CC(=O)OC[C@H](C)NC(=O)[C@H](N)CC(=O)O
Log SP: 1.61

N[C@H](CC(=O)O)C(=O)NCCOC(=O)C1CCC1
Log SP: 0.99

CC(C)OC(=O)[C@H](CO)NC(=O)[C@H](N)CC(=O)O
Log SP: 1.96

CCCOC(=O)[C@H](CO)NC(=O)[C@H](N)CC(=O)O
Log SP: 2.39

CC(=O)OC[C@H](CO)NC(=O)[C@H](N)CC(=O)O
Log SP: 1.23

CC[C@@H](Cc1ccccc1)NC(=O)[C@H](N)CC(=O)O
Log SP: 0.89

CCCC(=O)OC[C@H](C)NC(=O)[C@H](N)CC(=O)O
Log SP: 1.58

CCSC[C@@H](NC(=O)[C@H](N)CC(=O)O)C(=O)OC
Log SP: 1.6

CC(C)CC(=O)OC[C@H](CO)NC(=O)[C@H](N)CC(=O)O
Log SP: 1.3

CCC(CC)OC(=O)CCNC(=O)[C@H](N)CC(=O)O
Log SP: 0.6

CC1CC1C(=O)OC[C@H](C)NC(=O)[C@H](N)CC(=O)O (stereo not given in full)
Log SP: 1.68
